Results published in the NIST ThermoML archive (doi:10.1016/j.jct.2012.10.023).

Key:
[1] = xn = mol fraction of the nth substance listed; conditions: 101 kPa, Liquid; for speed of sound: Sing-around technique in a fixed-path interferometer; for mass density: Vibrating tube method
[2] = 101.33 kPa, Liquid; for speed of sound: Sing-around technique in a fixed-path interferometer; for mass density: Vibrating tube method

Cc1ccccc1C [1,2-dimethylbenzene] + CCCCCCCCCO
[1], x1 = 1
Conditions	mass density [kg/m3]	speed of sound [m/s]
298.15 K	875.363	1348.2
308.15 K	866.507	1308.2

Cc1ccccc1C [1,2-dimethylbenzene]
[2]
Conditions	mass density [kg/m3]	speed of sound [m/s]
298.15 K	875.363	1348.2
308.15 K	866.507	1308.2

Cc1cccc(C)c1 [1,3-dimethylbenzene] + CCCCCCCCCO
[1], x1 = 1
Conditions	mass density [kg/m3]	speed of sound [m/s]
298.15 K	859.867	1320.1
308.15 K	851.236	1279.1

CCCCCCCCCO [nonan-1-ol] + Cc1ccc(C)cc1
[1]
Conditions	mass density, 298.15 K [kg/m3]	mass density, 308.15 K [kg/m3]	speed of sound, 298.15 K [m/s]	speed of sound, 308.15 K [m/s]
x2 = 0	824.271	817.362	1363.1	1330.4
x2 = 0.0611	825.819	818.805	1360.1	1326.3
x2 = 0.1108	827.09	819.99	1357.1	1322.6
x2 = 0.1652	828.491	821.297	1353.4	1318.2
x2 = 0.226	830.074	822.774	1349	1313.3
x2 = 0.2932	831.854	824.435	1343.9	1307.5
x2 = 0.3651	833.819	826.271	1338.4	1301.2
x2 = 0.4248	835.506	827.851	1333.5	1296.1
x2 = 0.5023	837.784	829.988	1327.5	1289.7
x2 = 0.558	839.499	831.601	1323.3	1285.2
x2 = 0.6359	842.032	833.99	1318.1	1279.6
x2 = 0.7123	844.678	836.494	1313.8	1274.8
x2 = 0.7744	846.969	838.668	1311	1271.7
x2 = 0.8514	850.015	841.569	1308.9	1269
x2 = 0.9286	853.306	844.715	1308	1268

CCCCCCCCCO [nonan-1-ol]
[2]
Conditions	mass density [kg/m3]	speed of sound [m/s]
298.15 K	824.271	1363.1
308.15 K	817.362	1330.4

CCc1ccccc1 [ethylbenzene] + CCCCCCCCCO
[1], x1 = 1
Conditions	mass density [kg/m3]	speed of sound [m/s]
298.15 K	862.433	1318.6
308.15 K	853.607	1277.5

CCc1ccccc1 [ethylbenzene]
[2]
Conditions	mass density [kg/m3]	speed of sound [m/s]
298.15 K	862.433	1318.6
308.15 K	853.607	1277.5

CCCCCCCCCO [nonan-1-ol] + CCc1ccccc1
[1]
Conditions	mass density, 298.15 K [kg/m3]	mass density, 308.15 K [kg/m3]	speed of sound, 298.15 K [m/s]	speed of sound, 308.15 K [m/s]
x2 = 0	824.271	817.362	1363.1	1330.4
x2 = 0.0611	825.837	818.832	1359.7	1326.2
x2 = 0.1285	827.606	820.495	1355.8	1321.2
x2 = 0.1791	828.979	821.784	1352.3	1317.2
x2 = 0.2466	830.861	823.552	1347.6	1312
x2 = 0.3151	832.863	825.431	1342.6	1306.5
x2 = 0.3717	834.594	827.054	1338.4	1301.9
x2 = 0.4254	836.312	828.667	1334.5	1297.6
x2 = 0.5007	838.858	831.059	1329.2	1291.8
x2 = 0.5756	841.598	833.621	1324.6	1286.4
x2 = 0.6411	844.187	836.032	1321	1282.3
x2 = 0.7122	847.192	838.876	1318	1278.8
x2 = 0.7798	850.293	841.821	1316	1276.2
x2 = 0.8557	854.062	845.455	1315.2	1275
x2 = 0.9341	858.405	849.669	1316.3	1274.9

CCCCCCCCCO [nonan-1-ol] + Cc1cccc(C)c1
[1]
Conditions	mass density, 298.15 K [kg/m3]	mass density, 308.15 K [kg/m3]	speed of sound, 298.15 K [m/s]	speed of sound, 308.15 K [m/s]
x2 = 0	824.271	817.362	1363.1	1330.4
x2 = 0.066	826.04	819.011	1360.2	1326.5
x2 = 0.127	827.699	820.562	1357	1322.5
x2 = 0.1739	828.993	821.778	1354.2	1319.2
x2 = 0.2461	831.027	823.695	1349.4	1313.9
x2 = 0.2913	832.335	824.932	1346.4	1310.4
x2 = 0.3635	834.482	826.964	1341.4	1304.8
x2 = 0.4422	836.925	829.276	1335.9	1298.9
x2 = 0.4872	838.383	830.658	1332.9	1295.5
x2 = 0.5648	841.002	833.142	1328.2	1290.1
x2 = 0.6251	843.155	835.189	1324.7	1286.3
x2 = 0.6873	845.49	837.419	1321.9	1283
x2 = 0.7713	848.867	840.659	1319	1279.5
x2 = 0.8508	852.346	843.997	1317.8	1277.7
x2 = 0.9284	856.073	847.58	1318	1277.6

Cc1cccc(C)c1 [1,3-dimethylbenzene]
[2]
Conditions	mass density [kg/m3]	speed of sound [m/s]
298.15 K	859.867	1320.1
308.15 K	851.236	1279.1

CCCCCCCCCO [nonan-1-ol] + Cc1cc(C)cc(C)c1
[1]
Conditions	mass density, 298.15 K [kg/m3]	mass density, 308.15 K [kg/m3]	speed of sound, 298.15 K [m/s]	speed of sound, 308.15 K [m/s]
x2 = 0	824.271	817.362	1363.1	1330.4
x2 = 0.0696	826.211	819.181	1360.9	1327.3
x2 = 0.1267	827.826	820.708	1358.8	1324.6
x2 = 0.195	829.792	822.576	1356	1321
x2 = 0.2375	831.043	823.768	1354	1318.6
x2 = 0.3044	833.053	825.691	1350.8	1314.8
x2 = 0.362	834.839	827.405	1347.8	1311.4
x2 = 0.4358	837.211	829.683	1344.1	1307.4
x2 = 0.5112	839.754	832.121	1340.5	1303.3
x2 = 0.5777	842.112	834.381	1337.5	1300
x2 = 0.6422	844.512	836.681	1335.2	1297.5
x2 = 0.7091	847.143	839.209	1333.3	1295.2
x2 = 0.7788	850.052	841.998	1332.4	1293.7
x2 = 0.8571	853.546	845.418	1332.4	1293.1
x2 = 0.9234	856.701	848.558	1333.4	1293.8

Cc1ccc(C)cc1 [1,4-dimethylbenzene] + CCCCCCCCCO
[1], x1 = 1
Conditions	mass density [kg/m3]	speed of sound [m/s]
298.15 K	856.609	1309.5
308.15 K	847.881	1268.6

Cc1ccc(C)cc1 [1,4-dimethylbenzene]
[2]
Conditions	mass density [kg/m3]	speed of sound [m/s]
298.15 K	856.609	1309.5
308.15 K	847.881	1268.6

Cc1cc(C)cc(C)c1 [1,3,5-trimethylbenzene]
[2]
Conditions	mass density [kg/m3]	speed of sound [m/s]
298.15 K	860.862	1336
308.15 K	852.659	1296.3

CCCCCCCCCO [nonan-1-ol] + Cc1ccccc1C
[1]
Conditions	mass density, 298.15 K [kg/m3]	mass density, 308.15 K [kg/m3]	speed of sound, 298.15 K [m/s]	speed of sound, 308.15 K [m/s]
x2 = 0	824.271	817.362	1363.1	1330.4
x2 = 0.0653	826.644	819.637	1361.7	1328.2
x2 = 0.136	829.283	822.169	1359.7	1325.5
x2 = 0.1773	830.871	823.694	1358.3	1323.7
x2 = 0.2281	832.869	825.612	1356.5	1321.4
x2 = 0.2834	835.111	827.766	1354.3	1318.8
x2 = 0.3463	837.756	830.309	1351.8	1315.8
x2 = 0.4203	841.015	833.448	1348.8	1312.5
x2 = 0.4761	843.593	835.935	1346.7	1310
x2 = 0.5478	847.079	839.304	1344.3	1307.3
x2 = 0.6327	851.482	843.569	1342.2	1304.7
x2 = 0.7121	855.922	847.884	1341.1	1303
x2 = 0.7974	861.062	852.892	1341	1302.3
x2 = 0.8695	865.751	857.475	1342.1	1302.8
x2 = 0.9287	869.902	861.543	1344	1304.3

Cc1cc(C)cc(C)c1 [1,3,5-trimethylbenzene] + CCCCCCCCCO
[1], x1 = 1
Conditions	mass density [kg/m3]	speed of sound [m/s]
298.15 K	860.862	1336
308.15 K	852.659	1296.3
